Activity calls are given as the source filed them.
Tests used:
[1] = Luminescence Cell-Based Dose Response HTS to Identify Activators of Luciferase Translation or Activity in H4 […] Cells. [Related pubchem assays: 1829 (Project Summary), 1814 (Primary HTS)]; assay type: functional
H4 = assay: Luminescence Cell-Based Dose Response HTS to Identify Activators of 5'UTR Stem-Loop Driven Prion Protein mRNA Translation in H4 Neuroglioblastoma Cells. [Related pubchem assays: 1829 (Project Summary), 1814 (Primary HTS)]; assay type: functional; conditions: Homo sapiens
Fatty acid synthase [2] = molecular target: T1, Fatty acid synthase (Homo sapiens, UniProt P49327); assay: inhibition of human FAS-TE enzyme activity – biochemical, endpoint fluorescence intensity, uHTS hits, dose response (AID 624327); assay type: functional;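 note: fluorescence from hydrolysis of an O-methyl fluorescein acyl ester substrate by the enzyme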
T1 sequence (P49327 whole entry): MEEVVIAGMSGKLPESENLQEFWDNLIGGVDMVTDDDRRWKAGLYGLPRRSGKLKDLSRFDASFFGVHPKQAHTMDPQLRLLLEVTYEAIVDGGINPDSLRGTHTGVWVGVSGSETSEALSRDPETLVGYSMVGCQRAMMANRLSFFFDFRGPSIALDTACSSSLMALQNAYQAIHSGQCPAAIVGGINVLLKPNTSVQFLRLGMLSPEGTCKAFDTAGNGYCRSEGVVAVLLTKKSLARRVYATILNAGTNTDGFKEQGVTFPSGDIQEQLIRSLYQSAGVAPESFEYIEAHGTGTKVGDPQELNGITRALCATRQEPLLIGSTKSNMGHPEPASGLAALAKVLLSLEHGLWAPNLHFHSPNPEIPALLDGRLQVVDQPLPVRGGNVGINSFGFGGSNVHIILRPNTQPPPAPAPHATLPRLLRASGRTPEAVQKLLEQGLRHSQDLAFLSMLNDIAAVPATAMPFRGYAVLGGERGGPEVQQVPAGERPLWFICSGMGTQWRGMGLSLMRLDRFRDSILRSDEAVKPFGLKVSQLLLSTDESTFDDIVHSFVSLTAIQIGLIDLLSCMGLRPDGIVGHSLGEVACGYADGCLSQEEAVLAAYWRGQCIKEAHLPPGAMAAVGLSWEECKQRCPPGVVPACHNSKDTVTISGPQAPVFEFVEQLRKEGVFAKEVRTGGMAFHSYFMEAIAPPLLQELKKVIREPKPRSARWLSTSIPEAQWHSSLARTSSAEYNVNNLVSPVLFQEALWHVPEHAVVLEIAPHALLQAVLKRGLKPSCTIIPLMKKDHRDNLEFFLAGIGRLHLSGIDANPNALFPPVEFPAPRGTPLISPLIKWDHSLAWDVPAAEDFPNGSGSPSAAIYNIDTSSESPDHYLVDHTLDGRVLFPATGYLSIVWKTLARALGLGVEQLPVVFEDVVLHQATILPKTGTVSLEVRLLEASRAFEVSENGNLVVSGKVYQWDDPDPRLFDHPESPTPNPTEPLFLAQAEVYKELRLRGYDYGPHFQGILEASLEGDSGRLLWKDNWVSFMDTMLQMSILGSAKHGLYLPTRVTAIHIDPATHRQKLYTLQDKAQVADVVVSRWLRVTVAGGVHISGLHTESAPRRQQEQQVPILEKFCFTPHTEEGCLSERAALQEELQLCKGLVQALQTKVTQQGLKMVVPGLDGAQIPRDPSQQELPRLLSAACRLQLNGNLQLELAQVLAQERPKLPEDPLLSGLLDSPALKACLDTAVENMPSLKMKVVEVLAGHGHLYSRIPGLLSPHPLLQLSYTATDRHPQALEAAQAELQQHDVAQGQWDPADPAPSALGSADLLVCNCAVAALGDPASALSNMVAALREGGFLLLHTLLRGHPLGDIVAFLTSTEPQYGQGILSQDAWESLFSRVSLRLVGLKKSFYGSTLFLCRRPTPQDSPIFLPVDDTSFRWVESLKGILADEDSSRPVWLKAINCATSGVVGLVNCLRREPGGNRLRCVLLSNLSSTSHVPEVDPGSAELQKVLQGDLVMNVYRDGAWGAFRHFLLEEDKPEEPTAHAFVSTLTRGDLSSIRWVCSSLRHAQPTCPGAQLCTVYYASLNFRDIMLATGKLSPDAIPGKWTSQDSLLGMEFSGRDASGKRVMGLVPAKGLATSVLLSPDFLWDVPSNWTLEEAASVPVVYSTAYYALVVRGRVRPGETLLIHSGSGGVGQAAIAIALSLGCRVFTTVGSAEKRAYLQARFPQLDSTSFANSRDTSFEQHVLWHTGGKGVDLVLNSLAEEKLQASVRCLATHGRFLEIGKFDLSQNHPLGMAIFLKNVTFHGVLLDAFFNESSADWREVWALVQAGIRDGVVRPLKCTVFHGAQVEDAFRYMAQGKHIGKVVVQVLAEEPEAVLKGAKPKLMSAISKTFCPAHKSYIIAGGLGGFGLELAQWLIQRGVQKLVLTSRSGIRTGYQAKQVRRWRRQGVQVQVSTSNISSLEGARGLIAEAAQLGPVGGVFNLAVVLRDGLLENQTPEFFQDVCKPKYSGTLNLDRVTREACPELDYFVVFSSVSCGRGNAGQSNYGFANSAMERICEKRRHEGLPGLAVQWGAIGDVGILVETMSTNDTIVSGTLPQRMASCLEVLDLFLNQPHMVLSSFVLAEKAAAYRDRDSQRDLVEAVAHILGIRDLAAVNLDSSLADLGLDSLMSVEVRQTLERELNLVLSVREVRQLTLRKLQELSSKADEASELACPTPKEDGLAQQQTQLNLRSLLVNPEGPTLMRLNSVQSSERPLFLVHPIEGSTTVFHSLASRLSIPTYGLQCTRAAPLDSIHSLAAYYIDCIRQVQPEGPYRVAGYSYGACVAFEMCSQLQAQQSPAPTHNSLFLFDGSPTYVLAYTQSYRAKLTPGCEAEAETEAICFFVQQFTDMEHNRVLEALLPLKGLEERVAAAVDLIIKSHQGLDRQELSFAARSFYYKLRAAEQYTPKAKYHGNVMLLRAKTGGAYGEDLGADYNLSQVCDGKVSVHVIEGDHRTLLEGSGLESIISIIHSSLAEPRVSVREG

Fatty acid synthase [3] = molecular target: T1, Fatty acid synthase; assay: inhibition of human FAS-TE enzyme activity – biochemical, kinetic fluorescence intensity, dose response (AID 624326); assay type: functional;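 note: rate of fluorescence rise from hydrolysis of a fluorogenic O-methyl fluorescein ester substrate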
[4] = Luminescence Cell-Based Dose Confirmation HTS to Identify Activators of 5'UTR Stem-Loop Driven Alpha-Synuclein mRNA Translation in H4 Neuroglioblastoma Cells. [Related pubchem assays: 1829 (Project Summary), 1814 (Primary HTS)]; assay type: functional
Large T antigen = Large T antigen (Simian virus 40, UniProt P03070); assay type: functional, Betapolyomavirus macacae;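 note: Confirmatory-stage PubChem screen for compounds that inhibit SV40 T antigen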
Chain of Large T antigen (P03070 whole entry): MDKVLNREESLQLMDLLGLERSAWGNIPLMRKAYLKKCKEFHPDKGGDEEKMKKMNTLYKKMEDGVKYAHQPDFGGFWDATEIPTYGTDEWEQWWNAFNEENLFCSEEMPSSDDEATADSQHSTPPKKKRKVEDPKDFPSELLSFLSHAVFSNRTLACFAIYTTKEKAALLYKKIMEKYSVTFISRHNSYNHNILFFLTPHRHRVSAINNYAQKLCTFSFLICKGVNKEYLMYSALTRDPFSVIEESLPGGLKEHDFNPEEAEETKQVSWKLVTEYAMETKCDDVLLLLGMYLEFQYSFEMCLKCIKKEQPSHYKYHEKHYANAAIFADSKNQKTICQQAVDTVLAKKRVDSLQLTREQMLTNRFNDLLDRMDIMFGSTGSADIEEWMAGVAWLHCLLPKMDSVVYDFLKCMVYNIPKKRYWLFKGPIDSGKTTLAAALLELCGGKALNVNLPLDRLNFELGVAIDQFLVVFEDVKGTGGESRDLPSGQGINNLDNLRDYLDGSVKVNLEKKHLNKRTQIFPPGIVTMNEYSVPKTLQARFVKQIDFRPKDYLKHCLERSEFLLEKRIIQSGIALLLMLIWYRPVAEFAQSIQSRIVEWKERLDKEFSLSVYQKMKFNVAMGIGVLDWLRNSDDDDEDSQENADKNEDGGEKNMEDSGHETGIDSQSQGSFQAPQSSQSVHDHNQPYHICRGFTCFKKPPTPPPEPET

Coagulation factor XII = molecular target: T2, Coagulation factor XII (Homo sapiens, UniProt P00748); assay type: functional;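 note: activated factor XIIa alpha cleaving a fluorogenic AMC peptide substrate; inhibitor potency from loss of enzyme activity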
T2 sequence (P00748 whole entry): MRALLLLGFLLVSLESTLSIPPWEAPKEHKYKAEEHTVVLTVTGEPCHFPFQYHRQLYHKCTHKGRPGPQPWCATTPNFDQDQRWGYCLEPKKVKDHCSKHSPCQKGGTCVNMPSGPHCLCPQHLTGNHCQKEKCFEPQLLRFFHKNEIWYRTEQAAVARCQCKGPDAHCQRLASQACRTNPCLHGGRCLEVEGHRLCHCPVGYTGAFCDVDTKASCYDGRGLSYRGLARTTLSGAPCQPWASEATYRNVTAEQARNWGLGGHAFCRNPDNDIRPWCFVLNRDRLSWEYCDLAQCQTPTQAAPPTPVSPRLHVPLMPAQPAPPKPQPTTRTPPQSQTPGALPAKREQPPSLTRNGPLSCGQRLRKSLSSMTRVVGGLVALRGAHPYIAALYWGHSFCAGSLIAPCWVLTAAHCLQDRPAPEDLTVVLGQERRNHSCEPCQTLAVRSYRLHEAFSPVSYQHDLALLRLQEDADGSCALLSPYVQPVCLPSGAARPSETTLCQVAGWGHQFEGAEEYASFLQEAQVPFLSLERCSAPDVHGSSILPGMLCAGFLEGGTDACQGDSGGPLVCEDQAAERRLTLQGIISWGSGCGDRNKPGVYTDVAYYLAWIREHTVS

Cytochrome P450 3A4 = Cytochrome P450 3A4 (Homo sapiens, UniProt P08684);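 note: CYP3A4 tested as one member of a cytochrome P450 panel screen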
Chain of Cytochrome P450 3A4 (P08684 whole entry): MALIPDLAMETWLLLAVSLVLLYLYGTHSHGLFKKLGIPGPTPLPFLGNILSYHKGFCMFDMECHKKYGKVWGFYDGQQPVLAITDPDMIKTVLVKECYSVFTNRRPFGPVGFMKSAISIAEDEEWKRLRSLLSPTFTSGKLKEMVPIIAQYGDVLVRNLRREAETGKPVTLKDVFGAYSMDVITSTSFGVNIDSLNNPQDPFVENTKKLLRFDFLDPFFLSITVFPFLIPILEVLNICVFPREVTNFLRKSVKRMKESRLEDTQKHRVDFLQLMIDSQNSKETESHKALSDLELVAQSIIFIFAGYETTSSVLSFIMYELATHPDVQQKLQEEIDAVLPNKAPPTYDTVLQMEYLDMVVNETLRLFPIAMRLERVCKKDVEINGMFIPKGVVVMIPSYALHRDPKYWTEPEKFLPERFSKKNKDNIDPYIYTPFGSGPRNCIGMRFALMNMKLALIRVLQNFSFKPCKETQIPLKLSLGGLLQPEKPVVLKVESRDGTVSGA

Cytochrome P450 2C9 = Cytochrome P450 2C9 (Homo sapiens, UniProt P11712)
Chain of Cytochrome P450 2C9 (P11712 whole entry): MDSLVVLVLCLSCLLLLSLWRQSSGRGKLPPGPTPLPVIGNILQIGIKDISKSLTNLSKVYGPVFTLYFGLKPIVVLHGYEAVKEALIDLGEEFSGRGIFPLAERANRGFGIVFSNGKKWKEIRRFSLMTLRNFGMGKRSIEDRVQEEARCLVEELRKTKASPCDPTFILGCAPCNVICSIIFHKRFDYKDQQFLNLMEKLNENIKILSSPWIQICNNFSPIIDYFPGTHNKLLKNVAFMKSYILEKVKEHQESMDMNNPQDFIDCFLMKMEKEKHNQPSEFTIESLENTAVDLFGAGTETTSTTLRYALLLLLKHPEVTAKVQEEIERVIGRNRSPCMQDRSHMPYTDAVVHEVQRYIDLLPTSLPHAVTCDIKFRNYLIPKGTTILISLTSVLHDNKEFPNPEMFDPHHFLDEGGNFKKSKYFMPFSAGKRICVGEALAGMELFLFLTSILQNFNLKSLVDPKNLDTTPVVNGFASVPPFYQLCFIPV

Cytochrome P450 1A2 = molecular target: T3, Cytochrome P450 1A2 (Homo sapiens, UniProt P05177);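 note: PubChem cytochrome P450 panel assay, CYP1A2 panel member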
T3 sequence (P05177 whole entry): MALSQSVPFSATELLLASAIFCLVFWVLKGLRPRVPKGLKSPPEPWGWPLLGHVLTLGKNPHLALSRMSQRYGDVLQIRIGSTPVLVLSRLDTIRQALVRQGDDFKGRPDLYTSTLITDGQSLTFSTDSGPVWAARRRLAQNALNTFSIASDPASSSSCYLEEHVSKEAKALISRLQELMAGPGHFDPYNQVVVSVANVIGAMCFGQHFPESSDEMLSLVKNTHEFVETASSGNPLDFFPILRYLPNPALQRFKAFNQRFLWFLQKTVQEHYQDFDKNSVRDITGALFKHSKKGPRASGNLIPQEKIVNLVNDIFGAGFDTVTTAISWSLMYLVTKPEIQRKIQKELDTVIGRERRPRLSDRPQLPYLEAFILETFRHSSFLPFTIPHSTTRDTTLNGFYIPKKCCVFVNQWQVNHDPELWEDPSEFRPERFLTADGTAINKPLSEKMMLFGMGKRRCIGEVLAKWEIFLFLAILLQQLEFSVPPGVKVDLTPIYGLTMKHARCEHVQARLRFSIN

Cytochrome P450 2C19 = Cytochrome P450 2C19 (Homo sapiens, UniProt P33261); assay: Cytochrome panel assay with activity outcomes. Panel member name: p450-cyp2c19 Compounds with AC50 equal or less than 10 uM are considered active; assay type: functional; conditions: read-out: AC50
Chain of Cytochrome P450 2C19 (P33261 whole entry, the tested form may be a part): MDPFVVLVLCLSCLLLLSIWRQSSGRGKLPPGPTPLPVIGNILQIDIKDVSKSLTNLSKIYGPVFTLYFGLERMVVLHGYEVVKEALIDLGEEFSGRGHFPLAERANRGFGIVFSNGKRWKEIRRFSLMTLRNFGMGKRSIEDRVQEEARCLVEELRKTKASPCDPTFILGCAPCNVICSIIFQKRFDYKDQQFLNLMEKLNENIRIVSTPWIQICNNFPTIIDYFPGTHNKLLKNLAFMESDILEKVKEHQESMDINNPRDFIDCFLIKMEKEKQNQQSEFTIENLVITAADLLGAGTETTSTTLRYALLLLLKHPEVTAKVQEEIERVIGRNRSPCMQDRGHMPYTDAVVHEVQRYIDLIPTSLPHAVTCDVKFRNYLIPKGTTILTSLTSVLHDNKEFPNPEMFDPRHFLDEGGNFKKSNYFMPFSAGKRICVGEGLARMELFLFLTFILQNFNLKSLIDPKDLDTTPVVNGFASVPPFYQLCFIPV

[5] = molecular target: T4, RNA-binding protein pos-1 (Caenorhabditis elegans, UniProt G5EF15); assay: disruptors of C. elegans POS-1 RNA interaction – biochemical, fluorescence polarization, dose response (AID 1964);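 note: purified POS-1 fused to maltose binding protein made in E. coli; potency of compounds blocking POS-1 binding to fluorescent RNA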
T4 sequence (G5EF15 whole entry): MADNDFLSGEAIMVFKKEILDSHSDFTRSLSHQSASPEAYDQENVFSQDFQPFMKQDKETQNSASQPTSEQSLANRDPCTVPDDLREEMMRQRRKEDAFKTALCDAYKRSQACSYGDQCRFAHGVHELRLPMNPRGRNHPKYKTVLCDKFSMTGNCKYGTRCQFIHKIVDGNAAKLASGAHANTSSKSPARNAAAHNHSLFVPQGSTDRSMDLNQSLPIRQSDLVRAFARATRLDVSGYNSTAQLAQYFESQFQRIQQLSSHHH

[6] = molecular target: T5, Zinc finger protein mex-5 (Caenorhabditis elegans, UniProt Q9XUB2); assay: potency of MEX-5 RNA-binding blockers – biochemical, C. elegans, fluorescence polarization, dose response (AID 1960)
T5 sequence (Q9XUB2 whole entry): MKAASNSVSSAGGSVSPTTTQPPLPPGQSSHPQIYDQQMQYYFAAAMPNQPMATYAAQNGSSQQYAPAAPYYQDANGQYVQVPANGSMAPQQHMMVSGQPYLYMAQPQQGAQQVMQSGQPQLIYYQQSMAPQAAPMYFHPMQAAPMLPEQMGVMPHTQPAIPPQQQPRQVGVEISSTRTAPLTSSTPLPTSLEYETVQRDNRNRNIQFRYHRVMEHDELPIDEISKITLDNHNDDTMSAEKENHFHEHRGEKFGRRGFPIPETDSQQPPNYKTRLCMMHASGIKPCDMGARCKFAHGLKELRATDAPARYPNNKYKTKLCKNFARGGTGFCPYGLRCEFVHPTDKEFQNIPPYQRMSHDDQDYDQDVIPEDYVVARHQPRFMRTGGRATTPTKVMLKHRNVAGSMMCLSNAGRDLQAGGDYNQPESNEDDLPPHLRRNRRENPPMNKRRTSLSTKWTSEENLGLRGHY

[7] = viability of uninfected HEp-2 cells – cell-based, HTS, cytotoxicity control for RSV inhibitor project, dose response (AID 2410); assay type: functional; conditions: human respiratory syncytial virus
[8] = molecular target: T6, Rac GTPase-activating protein 1 (Homo sapiens, UniProt Q9H0H5); assay: blockers of MgcRacGAP-driven Rac1 GTP hydrolysis – biochemical, ADP Hunter fluorescence, primary and confirmatory, confirmation (AID 624330); assay type: functional
T6 sequence (Q9H0H5 whole entry): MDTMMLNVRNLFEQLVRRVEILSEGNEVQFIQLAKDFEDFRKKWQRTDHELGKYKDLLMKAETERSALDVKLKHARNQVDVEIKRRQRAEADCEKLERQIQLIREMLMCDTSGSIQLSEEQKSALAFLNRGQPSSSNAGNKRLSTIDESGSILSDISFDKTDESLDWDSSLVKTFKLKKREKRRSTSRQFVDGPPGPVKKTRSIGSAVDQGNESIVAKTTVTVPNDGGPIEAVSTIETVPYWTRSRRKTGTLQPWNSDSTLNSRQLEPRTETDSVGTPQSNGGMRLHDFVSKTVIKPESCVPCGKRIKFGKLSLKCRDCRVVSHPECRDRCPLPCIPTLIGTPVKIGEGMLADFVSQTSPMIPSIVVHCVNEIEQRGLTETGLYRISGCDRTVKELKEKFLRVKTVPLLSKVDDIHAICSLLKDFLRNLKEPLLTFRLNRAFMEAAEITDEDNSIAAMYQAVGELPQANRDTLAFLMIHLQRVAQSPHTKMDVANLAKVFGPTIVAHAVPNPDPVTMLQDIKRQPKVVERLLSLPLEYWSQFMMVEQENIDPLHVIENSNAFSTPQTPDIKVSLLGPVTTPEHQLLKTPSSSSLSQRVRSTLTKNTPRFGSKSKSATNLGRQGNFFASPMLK

[9] = viability of HCT116 lacking mutant beta-catenin – cell-based, human colon tumor, dose response (AID 1045); assay type: functional;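 note: HCT116 colon tumor cells with beta catenin knocked out; cells exposed to compound for 60 hours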
[10] = viability of PTEN-deleted HCT116 cells – cell-based, HCT116 PTEN knockout, dose response (AID 1047); assay type: functional;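 note: HCT116 colon tumor cells with PTEN knocked out; cells exposed to compound for 60 hours before readout; potency for loss of cell viability measured by luminescence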
Streptokinase A = molecular target: T7, Streptokinase A (Streptococcus pyogenes serotype M1, UniProt P10520); assay: viability-normalized secreted streptokinase activity reduction – plasminogen activation absorbance, OD405, dose response (AID 1914); assay type: functional, Streptococcus pyogenes M1 GAS;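 note: secreted streptokinase activity via plasminogen activation per viability signal from cell pellet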
T7 sequence (P10520 whole entry): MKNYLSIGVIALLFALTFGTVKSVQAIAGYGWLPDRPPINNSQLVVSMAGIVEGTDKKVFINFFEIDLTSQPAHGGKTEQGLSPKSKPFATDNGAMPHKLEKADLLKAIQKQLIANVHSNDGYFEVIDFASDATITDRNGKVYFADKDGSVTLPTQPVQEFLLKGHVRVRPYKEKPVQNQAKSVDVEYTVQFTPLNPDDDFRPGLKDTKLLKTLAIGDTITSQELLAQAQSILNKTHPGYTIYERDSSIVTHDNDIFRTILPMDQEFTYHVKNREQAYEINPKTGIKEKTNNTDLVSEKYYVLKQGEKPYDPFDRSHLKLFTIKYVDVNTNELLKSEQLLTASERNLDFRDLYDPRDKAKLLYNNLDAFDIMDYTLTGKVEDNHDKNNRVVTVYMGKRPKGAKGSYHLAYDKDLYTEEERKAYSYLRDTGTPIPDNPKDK

[11] = tested on: Streptococcus sp. 'group A'; assay: Streptococcus pyogenes SK(-)GAS viability under kanamycin – luminescence, BacTiterGlo, confirmation, counter-screen for streptokinase expression inhibitor project, dose response (AID 1900); assay type: functional, organism-based
Streptococcus = assay: GAS UMAA2166 growth inhibition – luminescence, BacTiterGlo, counter-screen for streptokinase expression inhibitor project, dose response (AID 1915); assay type: functional, organism-based;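 note: potency for reduction of bacterial viability or growth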

CCOc1cccc2cc(C(=O)NCCC3=CCCCC3)c(=O)oc12
EC50 [1]: > 120 µM (not active)
EC50 (H4): 25 µM (active)
IC50 (Fatty acid synthase [2]): 3.95 µM (active)
IC50 (Fatty acid synthase [3]): 4.15 µM (active)
EC50 [4]: 7.15 µM (active)

O=C1NC(=S)N(c2ccccc2F)C(=O)/C1=C/Nc1ccc(N2CCOCC2)cc1
IC50 (Large T antigen): 4.54 µM (active)

COC(=O)CC1C(=O)NCCN1C(=S)Nc1cccc(C)c1 (configuration not stated)
IC50 (Coagulation factor XII): > 50 µM (inactive)

CC(=O)Nc1ccc(NC(=O)CSc2ncnn2-c2ccccc2)cc1
AC50 (Cytochrome P450 3A4): 28.2 µM (inconclusive)
IC50 (Coagulation factor XII): > 50 µM (inactive)
AC50 (Cytochrome P450 2C9): 12.6 µM (inconclusive)
AC50 (Cytochrome P450 1A2): 28.2 µM (inconclusive)

O=C(c1ccc2ncsc2c1)N1CCN(c2ccc(O)cc2)CC1
AC50 (Cytochrome P450 3A4): 3.55 µM (inconclusive)
AC50 (Cytochrome P450 2C9): 1.78 µM (inconclusive)
IC50 (Large T antigen): 14.4 µM (active)
AC50 (Cytochrome P450 2C19): 20 µM (inconclusive)

COc1ccccc1N1CC(C(=O)Nc2nnc(SCC(=O)NC(C)C)s2)CC1=O (configuration not stated)
EC50 [5]: > 300 µM (not active)
EC50 [6]: > 300 µM (not active)

Cc1ccc2nc(NC(=O)C3CCCN(S(=O)(=O)c4cccc5nsnc45)C3)sc2c1 (configuration not stated)
IC50 (Coagulation factor XII): > 50 µM (inactive)
CC50 [7]: 29.4 µM (active)

C/N=c1\scc(C)n1/N=C/c1ccc(O)cc1
IC50 (Large T antigen): 8.35 µM (active)
IC50 [8]: 20.9 µM (active)

COCCNC(=O)CC(NS(=O)(=O)c1ccc(C)cc1)c1ccco1 (configuration not stated)
IC50 (Coagulation factor XII): > 50 µM (inactive)

CN1C(=O)C(=Cc2c[nH]c3ccc(Br)cc23)C(=O)N(C)C1=O
EC50 [5]: > 300 µM (not active)
EC50 [6]: > 300 µM (not active)

O=C(CN=C(S)N(Cc1ccccc1)Cc1ccccc1F)NCCc1ccccc1
IC50 (Coagulation factor XII): > 50 µM (inactive)

CC1CCOC2(O1)C(=O)Nc1ccccc12 (configuration not stated)
IC50 (Coagulation factor XII): > 50 µM (inactive)

COc1cccc(N2C(=O)/C(=C/c3ccc(C)o3)C(=O)NC2=S)c1
EC50 [5]: > 300 µM (not active)
EC50 [6]: 44.5 µM (active)

Nc1nc(-c2cccs2)c(NC(=O)c2ccccc2)s1
EC50 [9]: 23.8 µM (active)
IC50 (Large T antigen): 23.2 µM (active)
EC50 [10]: 27.4 µM (active)

CCOC(=O)C1=C(Nc2ccccc2)S/C(=C\c2cn(CC(=O)N3CCCC3)c3ccccc23)C1=O
EC50 [5]: 47.5 µM (active)
EC50 [6]: 26.2 µM (active)

O=C(N/N=C/c1ccc(O)c(O)c1)c1cccc(S(=O)(=O)N2CCCCC2)c1
IC50 (Large T antigen): 4.75 µM (active)
IC50 [8]: 85.3 µM (active)

O=C(N/N=C/c1cc(Cl)cc([N+](=O)[O-])c1O)C(O)(c1ccccc1)c1ccccc1
EC50 (Streptokinase A): > 150 µM (not active)
EC50 [11]: 3.8 µM (active)
EC50 [5]: > 300 µM (not active)
EC50 [6]: 40.2 µM (active)
EC50 (Streptococcus): 7.21 µM (active)

Cc1sc(NC(=O)c2ccco2)c(CN2CCN(c3ccc(F)cc3)CC2)c1C
IC50 (Coagulation factor XII): > 50 µM (inactive)

CCNc1ccc(N=Nc2c(C)n(C)n(-c3ccccc3)c2=O)cc1
IC50 (Large T antigen): 7.88 µM (active)
